Measurements: the NIST ThermoML archive (doi:10.1016/j.jct.2005.07.011)

Assay: excess molar enthalpy (molar enthalpy of mixing); xn = mol fraction of the nth substance listed
Conditions: Liquid, Flow calorimetry

COC(=O)OC [dimethyl carbonate] + CCCCO
Conditions | excess molar enthalpy [kcal/mol]
298.15 K, 1000 kPa, x1 = 0.05 | 0.127
298.15 K, 1000 kPa, x1 = 0.1 | 0.232
298.15 K, 1000 kPa, x1 = 0.15 | 0.317
298.15 K, 1000 kPa, x1 = 0.2 | 0.383
298.15 K, 1000 kPa, x1 = 0.25 | 0.435
298.15 K, 1000 kPa, x1 = 0.3 | 0.4733
298.15 K, 1000 kPa, x1 = 0.35 | 0.5011
298.15 K, 1000 kPa, x1 = 0.4 | 0.5163
298.15 K, 1000 kPa, x1 = 0.45 | 0.5253
298.15 K, 1000 kPa, x1 = 0.5 | 0.5258
298.15 K, 1000 kPa, x1 = 0.55 | 0.5155
298.15 K, 1000 kPa, x1 = 0.6 | 0.4945
298.15 K, 1000 kPa, x1 = 0.65 | 0.4683
298.15 K, 1000 kPa, x1 = 0.7 | 0.4353
298.15 K, 1000 kPa, x1 = 0.75 | 0.3916
298.15 K, 1000 kPa, x1 = 0.8 | 0.3364
298.15 K, 1000 kPa, x1 = 0.85 | 0.2695
298.15 K, 1000 kPa, x1 = 0.9 | 0.1907
298.15 K, 1000 kPa, x1 = 0.95 | 0.09904
313.15 K, 100 kPa, x1 = 0.049 | 0.125
313.15 K, 100 kPa, x1 = 0.099 | 0.235
313.15 K, 100 kPa, x1 = 0.149 | 0.329
313.15 K, 100 kPa, x1 = 0.199 | 0.404
313.15 K, 100 kPa, x1 = 0.25 | 0.4635
313.15 K, 100 kPa, x1 = 0.299 | 0.5061
313.15 K, 100 kPa, x1 = 0.351 | 0.5395
313.15 K, 100 kPa, x1 = 0.4 | 0.5598
313.15 K, 100 kPa, x1 = 0.449 | 0.5716
313.15 K, 100 kPa, x1 = 0.499 | 0.5732
313.15 K, 100 kPa, x1 = 0.549 | 0.5667
313.15 K, 100 kPa, x1 = 0.6 | 0.5459
313.15 K, 100 kPa, x1 = 0.651 | 0.5157
313.15 K, 100 kPa, x1 = 0.699 | 0.4762
313.15 K, 100 kPa, x1 = 0.751 | 0.427
313.15 K, 100 kPa, x1 = 0.8 | 0.368
313.15 K, 100 kPa, x1 = 0.85 | 0.299
313.15 K, 100 kPa, x1 = 0.899 | 0.204
313.15 K, 100 kPa, x1 = 0.949 | 0.108
313.15 K, 1000 kPa, x1 = 0.049 | 0.127
313.15 K, 1000 kPa, x1 = 0.099 | 0.238
313.15 K, 1000 kPa, x1 = 0.149 | 0.331
313.15 K, 1000 kPa, x1 = 0.199 | 0.406
313.15 K, 1000 kPa, x1 = 0.25 | 0.4659
313.15 K, 1000 kPa, x1 = 0.299 | 0.5082
313.15 K, 1000 kPa, x1 = 0.35 | 0.5426
313.15 K, 1000 kPa, x1 = 0.399 | 0.5625
313.15 K, 1000 kPa, x1 = 0.449 | 0.572
313.15 K, 1000 kPa, x1 = 0.499 | 0.5728
313.15 K, 1000 kPa, x1 = 0.549 | 0.5639
313.15 K, 1000 kPa, x1 = 0.6 | 0.5428
313.15 K, 1000 kPa, x1 = 0.651 | 0.5125
313.15 K, 1000 kPa, x1 = 0.699 | 0.4734
313.15 K, 1000 kPa, x1 = 0.751 | 0.4239
313.15 K, 1000 kPa, x1 = 0.8 | 0.368
313.15 K, 1000 kPa, x1 = 0.849 | 0.296
313.15 K, 1000 kPa, x1 = 0.899 | 0.206
313.15 K, 1000 kPa, x1 = 0.949 | 0.105
313.15 K, 10000 kPa, x1 = 0.049 | 0.124
313.15 K, 10000 kPa, x1 = 0.101 | 0.24
313.15 K, 10000 kPa, x1 = 0.151 | 0.332
313.15 K, 10000 kPa, x1 = 0.202 | 0.405
313.15 K, 10000 kPa, x1 = 0.249 | 0.4604
313.15 K, 10000 kPa, x1 = 0.3 | 0.5061
313.15 K, 10000 kPa, x1 = 0.349 | 0.5364
313.15 K, 10000 kPa, x1 = 0.401 | 0.5586
313.15 K, 10000 kPa, x1 = 0.451 | 0.5694
313.15 K, 10000 kPa, x1 = 0.501 | 0.5711
313.15 K, 10000 kPa, x1 = 0.551 | 0.5597
313.15 K, 10000 kPa, x1 = 0.602 | 0.5408
313.15 K, 10000 kPa, x1 = 0.65 | 0.513
313.15 K, 10000 kPa, x1 = 0.75 | 0.4247
313.15 K, 10000 kPa, x1 = 0.799 | 0.368
313.15 K, 10000 kPa, x1 = 0.849 | 0.293
313.15 K, 10000 kPa, x1 = 0.899 | 0.21
313.15 K, 10000 kPa, x1 = 0.949 | 0.105
328.15 K, 1000 kPa, x1 = 0.05 | 0.129
328.15 K, 1000 kPa, x1 = 0.1 | 0.243
328.15 K, 1000 kPa, x1 = 0.15 | 0.341
328.15 K, 1000 kPa, x1 = 0.2 | 0.418
328.15 K, 1000 kPa, x1 = 0.25 | 0.4826
328.15 K, 1000 kPa, x1 = 0.3 | 0.531
328.15 K, 1000 kPa, x1 = 0.35 | 0.5685
328.15 K, 1000 kPa, x1 = 0.4 | 0.5957
328.15 K, 1000 kPa, x1 = 0.45 | 0.6082
328.15 K, 1000 kPa, x1 = 0.5 | 0.6094
328.15 K, 1000 kPa, x1 = 0.55 | 0.602
328.15 K, 1000 kPa, x1 = 0.6 | 0.5832
328.15 K, 1000 kPa, x1 = 0.65 | 0.5542
328.15 K, 1000 kPa, x1 = 0.7 | 0.513
328.15 K, 1000 kPa, x1 = 0.75 | 0.4578
328.15 K, 1000 kPa, x1 = 0.8 | 0.3918
328.15 K, 1000 kPa, x1 = 0.85 | 0.3191
328.15 K, 1000 kPa, x1 = 0.9 | 0.2231
328.15 K, 1000 kPa, x1 = 0.95 | 0.114
